System: MDA-MB-468 cell line
Assay: Resazurin viability assay
Type: cell-based
Conditions: co-treatment with BEZ235, sub-toxic doses combined, 24 hrs, MDA-MB-468 cells (FIG. 1)
Procedure: Cell Culture. The MDA-MB-468 cell line was from ATCC. This cell line was established from a pleural effusion of patient with metastatic breast adenocarcinoma. The cells were maintained in RPMI medium supplemented with 10% (v/v) FBS, 0.3 mg/mL L-glutamine, and 0.1 mg/mL gentamicin at 37° C. in 5% CO2. Sub-culture using trypsin-EDTA was performed every 3-4 days with a split ratio of 1:3-1:6 to ensure actively proliferating cells.
Resazurin Viability Assay. Cells were seeded in fully supplemented medium at a density of 7 000 cells per well in 96 well plates. After 24 hrs of cultivation, when the cells were ˜60% confluent, the medium was replaced with serum free medium to ensure synchronization of the cells and to increase cell sensitivity to treatment. Following 16 hrs of serum starvation, the medium was replaced with fresh serum free medium with or without Compounds 1 and 2 (Avexxin, Norway), and NVP-BEZ235 (Cayman Chemicals, US) or solvent (DMSO, Sigma Aldrich, US). The cells were observed under the microscope to evaluate possible morphology changes and signs of stress before the addition of resazurin according to the manufacturers instructions (RnD Systems, UK). Resazurin was metabolized for 2 hrs (37° C., 5% CO2) before fluorescence was read at 544 nm excitation and 590 nm emission wavelengths (BioTek Synergy HT).

CCCCCCCOc1ccc(OCC(=O)c2nc(C(=O)OC)cs2)cc1 [Compound 1]
synergistic effects on breast cancer cell viability compared to each inhibitor alone: synergistic effects
synergistic effects on breast cancer cell viability compared to each inhibitor alone (listed as compound 1): the synergistic effect is pronounced

Source: patent US11439625B2, “Combination therapy for proliferative diseases” (Avexxin AS, priority 2016, dated 2022)
